Laboratory results: patent publication US8148391B2 (Cephalon, Inc., priority 2006, dated 2012)
pIC50: −log10 of the molar value. Where two headings read alike, the source gives them in different places.

Legend:
[1] = target: T1, c-Met (cytoplasmic domain) (Homo sapiens, UniProt P08581); test: c-Met Kinase Assay (same methods as for ALK, with modifications); type: biochemical
T1 construct: 10 ng/mL c-Met (cytoplasmic domain, Invitrogen Corporation #PV3143); purchased Invitrogen Corporation PV3143
T1 sequence (P08581 956-1390 limits assumed): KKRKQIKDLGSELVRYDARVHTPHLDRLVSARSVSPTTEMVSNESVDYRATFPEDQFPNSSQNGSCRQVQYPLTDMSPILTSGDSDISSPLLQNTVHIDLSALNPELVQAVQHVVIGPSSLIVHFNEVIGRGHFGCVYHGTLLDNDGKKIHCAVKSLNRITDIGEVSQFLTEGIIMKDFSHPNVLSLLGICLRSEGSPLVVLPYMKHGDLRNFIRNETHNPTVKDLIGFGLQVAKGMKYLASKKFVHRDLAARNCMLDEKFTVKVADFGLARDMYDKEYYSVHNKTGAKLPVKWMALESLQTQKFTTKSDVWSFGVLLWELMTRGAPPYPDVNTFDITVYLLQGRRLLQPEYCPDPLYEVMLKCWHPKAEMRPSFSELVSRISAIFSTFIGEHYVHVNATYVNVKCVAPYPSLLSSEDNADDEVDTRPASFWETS
How it was run: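 Europium-labeled PT66 antibody (Eu-N1) detects substrate phosphorylation on wells coated with phospholipase C-γ at 10 μg/mL. The kinase, the cytoplasmic domain of c-Met at 10 ng/mL, starts the reaction, which proceeds 15 minutes at 37° C.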

[2] = target: T2, baculovirus-expressed ALK (Homo sapiens, UniProt Q9UM73); test: ALK Kinase Assay (ELISA-type, time-resolved fluorescence); type: biochemical
T2 construct: host or cells: baculovirus expression system
T2 sequence (Q9UM73 19-1620): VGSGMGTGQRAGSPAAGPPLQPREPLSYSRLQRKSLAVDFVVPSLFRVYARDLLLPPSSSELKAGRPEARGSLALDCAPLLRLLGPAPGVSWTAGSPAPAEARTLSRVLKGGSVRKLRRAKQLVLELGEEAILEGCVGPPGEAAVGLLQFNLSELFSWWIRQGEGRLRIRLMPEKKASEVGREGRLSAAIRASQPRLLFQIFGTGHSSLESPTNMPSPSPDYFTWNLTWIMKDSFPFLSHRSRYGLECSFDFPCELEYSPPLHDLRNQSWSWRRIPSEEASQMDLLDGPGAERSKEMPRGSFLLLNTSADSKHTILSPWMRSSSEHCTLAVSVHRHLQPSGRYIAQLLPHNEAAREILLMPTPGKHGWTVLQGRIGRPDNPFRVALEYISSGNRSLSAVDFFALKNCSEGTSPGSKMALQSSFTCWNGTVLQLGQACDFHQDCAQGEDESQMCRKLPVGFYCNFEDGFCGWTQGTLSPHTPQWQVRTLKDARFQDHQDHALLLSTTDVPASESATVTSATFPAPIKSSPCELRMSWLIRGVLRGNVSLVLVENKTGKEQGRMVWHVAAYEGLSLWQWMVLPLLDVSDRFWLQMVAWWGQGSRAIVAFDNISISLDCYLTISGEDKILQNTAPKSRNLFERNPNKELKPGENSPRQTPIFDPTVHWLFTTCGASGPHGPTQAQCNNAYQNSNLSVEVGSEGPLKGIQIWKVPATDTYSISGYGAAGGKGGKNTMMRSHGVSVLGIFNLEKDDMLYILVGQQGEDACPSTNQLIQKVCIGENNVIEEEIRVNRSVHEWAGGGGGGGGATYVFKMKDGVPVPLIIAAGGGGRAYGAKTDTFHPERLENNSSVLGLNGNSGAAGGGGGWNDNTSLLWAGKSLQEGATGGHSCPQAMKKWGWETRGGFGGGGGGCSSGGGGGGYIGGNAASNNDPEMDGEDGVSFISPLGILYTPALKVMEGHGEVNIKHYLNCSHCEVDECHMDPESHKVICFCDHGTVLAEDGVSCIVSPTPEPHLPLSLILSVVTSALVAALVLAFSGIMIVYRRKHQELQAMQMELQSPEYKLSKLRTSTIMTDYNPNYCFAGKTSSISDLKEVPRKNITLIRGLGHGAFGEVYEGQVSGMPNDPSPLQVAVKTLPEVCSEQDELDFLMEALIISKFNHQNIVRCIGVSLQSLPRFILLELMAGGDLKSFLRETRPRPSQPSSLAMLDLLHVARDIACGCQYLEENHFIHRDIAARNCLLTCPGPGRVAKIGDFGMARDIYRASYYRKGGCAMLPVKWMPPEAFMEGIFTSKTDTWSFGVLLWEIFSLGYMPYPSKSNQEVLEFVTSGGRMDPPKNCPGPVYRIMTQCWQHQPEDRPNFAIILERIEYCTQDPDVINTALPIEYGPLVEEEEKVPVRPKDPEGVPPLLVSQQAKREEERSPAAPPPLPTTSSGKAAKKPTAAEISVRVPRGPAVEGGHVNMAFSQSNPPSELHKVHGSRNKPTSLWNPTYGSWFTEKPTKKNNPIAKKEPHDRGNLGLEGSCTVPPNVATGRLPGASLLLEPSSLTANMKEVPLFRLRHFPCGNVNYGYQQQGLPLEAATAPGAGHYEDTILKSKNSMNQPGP
How it was run: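 Plates coated with phospholipase C-γ substrate (10 μg/mL in TBS); reaction started with 30 ng/ml ALK and run 15 min at 37° C. Phosphorylated substrate detected with Eu-N1-labeled PT66 antibody. IC50 from sigmoidal variable-slope fit of percent inhibition vs log concentration.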

[3] = c-Met kinase inhibition, 1 μM ATP, read-out: cMet Activity
[4] = ALK kinase inhibition, 1 μM ATP, read-out: ALK Activity
[5] = 1 μM ATP (Km level), read-out: cMet Activity (c-Met Kinase Inhibition, IC50)
[6] = 1 μM ATP (Km level), read-out: ALK Activity (ALK Kinase Inhibition, IC50)
[7] = 1 μM ATP (Km level), 10 ng/mL c-Met, read-out: cMet Activity (c-Met kinase inhibition, IC50 class)
[8] = 1 μM ATP (Km level), 30 ng/ml ALK, 37° C., 15 minutes, read-out: ALK Activity (ALK kinase inhibition, IC50 class)
[9] = c-Met kinase inhibition, 1 μM ATP (Km level), read-out: cMet Activity
[10] = ALK kinase inhibition, 1 μM ATP (Km level), read-out: ALK Activity

Row | pIC50 [1, 5] | pIC50 [2, 6] | pIC50 [1, 7] | pIC50 [2, 8] | Compound | other results
1 | – | – | – | – | COCCN1CCc2ccc(Nc3ncc(Cl)c(Nc4ccccc4OCCN4CCOCC4)n3)cc2CC1 [Example 1466, 5-Chloro-N*2*-[3-(2-methoxy-ethyl)-2,3,4,5-tetrahydro-1H-enzo[d]azepin-7-yl]-N*4*-[2-(2-morpholin-4-yl-ethoxy)-phenyl]-pyrimidine-2,4-diamine] | pIC50 [1, 3]: < 5.00; pIC50 [2, 4]: 5.00 to 6.00
2 | < 5.00 | > 7.00 | – | – | 5-Chloro-N*4*-(2-ethyl-4-morpholin-4-yl-phenyl)-N*2*-[7-(2,2,2-trifluoro-ethylamino)-6,7,8,9-tetrahydro-5H-benzocyclohepten-2-yl]-pyrimidine-2,4-diamine [Example 652] | –
3 | – | – | 5.00 to 6.00 | > 7.00 | COc1cc(N2CCOCC2)ccc1Nc1nc(Nc2ccc3c(c2)CCN(CC(=O)N(C)C)CC3)ncc1Cl [Example 1368, 2-{7-[5-Chloro-4-(2-methoxy-4-morpholin-4-yl-phenylamino)-pyrimidin-2-ylamino]-1,2,4,5-tetrahydro-benzo[d]azepin-3-yl}-N,N-dimethyl-acetamide] | –
4 | 6.00 to 7.00 | > 7.00 | – | – | COCCN1CCc2ccc(Nc3ncc(Cl)c(Nc4ccccc4-c4nccs4)n3)cc2CC1 [Example 979, 5-Chloro-N*2*-[3-(2-methoxy-ethyl)-2,3,4,5-tetrahydro-1H-benzo[d]azepin-7-yl]-N*4*-(2-thiazol-2-yl-phenyl)-pyrimidine-2,4-diamine] | –
5 | < 5.00 | > 7.00 | – | – | CCN1CC(=O)N(CC)c2cc(Nc3ncc(Cl)c(Nc4ccccc4S(=O)(=O)N(C)C)n3)c(OC)cc2C1 [Example 738, 2-[5-Chloro-2-(1,4-diethyl-7-methoxy-2-oxo-2,3,4,5-tetrahydro-1H-benzo[e][1,4]diazepin-8-ylamino)-pyrimidin-4-ylamino]-N,Ndimethyl-benzenesulfonamide] | –
6 | – | – | 5.00 to 6.00 | 5.00 to 6.00 | O=C1CCCc2ccc(Nc3ncc(Cl)c(Nc4c(F)cc(F)cc4N4CCOCC4)n3)cc2N1 [Example 1286, 8-[5-Chloro-4-(2,4-difluoro-6-morpholin-4-yl-phenylamino)-pyrimidin-2-ylamino]-1,3,4,5-tetrahydro-1-benzazepin-2-one] | –
7 | – | – | – | – | C#CCNC(=O)c1cccc(F)c1Nc1nc(Nc2ccc3c(c2)N(CCN2CCCC2)CCCC3(C)C)ncc1Cl [Example 1609, 2-{5-Chloro-2-[5,5-dimethyl-1-(2-pyrrolidin-1-yl-ethyl)-2,3,4,5-tetrahydro-1H-benzo[b]azepin-8-ylamino]-pyrimidin-4-ylamino}-3-fluoro-N-prop-2-ynyl-benzamide] | pIC50 [1, 3]: 6.00 to 7.00; pIC50 [2, 4]: > 7.00
8 | – | – | – | – | COc1cc(N2CCOCC2)ccc1Nc1nc(Nc2ccc3c(c2)C2CCC3CN(C(=O)C(F)(F)F)C2)ncc1Cl (stereo not drawn) [Example 290, 2-{4-[5-Chloro-4-(2-methoxy-4-morpholin-4-yl-phenylamino)-pyrimidin-2-ylamino]-10-aza-tricyclo[6.3.2.0*2,7*]trideca-2,4,6-trien-10-yl}-2,2,2-trifluoro-ethanone] | pIC50 [1, 9]: < 5.00; pIC50 [2, 10]: 6.00 to 7.00
9 | – | – | < 5.00 | > 7.00 | COc1cc2c(cc1Nc1ncc(Cl)c(Nc3ccc(N(C)C)cc3OC)n1)CCN(CCS(C)(=O)=O)CC2 [Example 1167, 5-Chloro-N*4*-(4-dimethylamino-2-methoxy-phenyl)-N*2*-[3-(2-methanesulfonyl-ethyl)-8-methoxy-2,3,4,5-tetrahydro-1H-benzo[d]azepin-7-yl]-pyrimidine-2,4-diamine] | –
10 | > 7.00 | > 7.00 | – | – | CCNC(=O)c1ccccc1Nc1nc(Nc2ccc3c(c2)CCC(N2CCOCC2)CC3)ncc1Cl (stereo not drawn) [Example 866, 2-[5-Chloro-2-(7-morpholin-4-yl-6,7,8,9-tetrahydro-5H-benzocyclohepten-2-ylamino)-pyrimidin-4-ylamino]-N-ethyl-benzamide] | –
11 | – | – | – | – | COC(=O)CN1CCN(C)c2cc(Nc3ncc(Cl)c(Nc4ccccc4NS(C)(=O)=O)n3)ccc2C1 [Example 472, {8-[5-Chloro-4-(2-methanesulfonylamino-phenylamino)-pyrimidin-2-ylamino]-1-methyl-1,2,3,5-tetrahydro-benzo[e][1,4]diazepin-4-yl}-acetic acid methyl ester] | pIC50 [1, 9]: 6.00 to 7.00; pIC50 [2, 10]: > 7.00
12 | < 5.00 | > 7.00 | – | – | CCNC(=O)c1ccccc1Nc1nc(Nc2cc3c(cc2OC)CCN(CC(C)(F)F)CC3)ncc1Cl [Example 788, 2-{5-Chloro-2-[3-(2,2-difluoro-propyl)-8-methoxy-2,3,4,5-tetrahydro-1H-benzo[d]azepin-7-ylamino]-pyrimidin-4-ylamino}-N-ethyl-benzamide] | –
13 | – | – | – | – | CN1Cc2cc(Nc3ncc(Cl)c(Nc4ccccc4-c4cc[nH]n4)n3)ccc2CCC1=O [Example 1804, 8-{5-Chloro-4-[2-(1H-pyrazol-3-yl)-phenylamino]-pyrimidin-2-ylamino}-2-methyl-1,2,4,5-tetrahydro-benzo[c]azepin-3-one] | pIC50 [1, 3]: 6.00 to 7.00; pIC50 [2, 4]: > 7.00
14 | – | – | > 7.00 | > 7.00 | C#CCNC(=O)c1cccc(F)c1Nc1nc(Nc2ccc3c(c2)CCN(CCOC)CC3)ncc1Cl [Example 1403, 2-{5-Chloro-2-[3-(2-methoxy-ethyl)-2,3,4,5-tetrahydro-1H-benzo[d]azepin-7-ylamino]-pyrimidin-4-ylamino}-3-fluoro-N-prop-2-ynyl-benzamide] | –
15 | < 5.00 | 6.00 to 7.00 | – | – | CCN1CC(=O)N(C)c2cc(Nc3ncc(Cl)c(Nc4ccc(OC)c(CNCCO)c4)n3)c(OC)cc2C1 [Example 749, 8-(5-Chloro-4-{3-[(2-hydroxy-ethylamino)-methyl]-4-methoxy-phenylamino}-pyrimidin-2-ylamino)-4-ethyl-7-methoxy-1-methyl-1,3,4,5-tetrahydro-benzo[e][1,4]diazepin-2-one] | –
16 | – | – | – | – | CCN1CCN(CC)c2cc(Nc3ncc(Cl)c(Nc4ccccc4NS(C)(=O)=O)n3)ccc2C1=O [Example 423, N-{2-[5-Chloro-2-(1,4-diethyl-5-oxo-2,3,4,5-tetrahydro-1H-benzo[e][1,4]diazepin-8-ylamino)-pyrimidin-4-ylamino]-phenyl}-methanesulfonamide] | pIC50 [1, 9]: 6.00 to 7.00; pIC50 [2, 10]: > 7.00
17 | – | – | 6.00 to 7.00 | > 7.00 | CCCNC(=O)c1ccccc1Nc1nc(Nc2ccc3c(c2)CCN(CCOC)CC3)ncc1Cl [Example 1023, 2-{5-Chloro-2-[3-(2-methoxy-ethyl)-2,3,4,5-tetrahydro-1H-benzo[d]azepin-7-ylamino]-pyrimidin-4-ylamino}-N-propyl-benzamide] | –
18 | – | – | 6.00 to 7.00 | < 5.00 | COc1cccc(C(=O)NCC#N)c1Nc1nc(Nc2ccc3c(c2)CCCC(=O)N3C)ncc1Cl [Example 1065, 2-[5-Chloro-2-(1-methyl-2-oxo-2,3,4,5-tetrahydro-1H-benzo[b]azepin-7-ylamino)-pyrimidin-4-ylamino]-N-cyanomethyl-3-methoxy-benzamide] | –
19 | < 5.00 | > 7.00 | – | – | CCN1CCN(CC)c2cc(Nc3nc(Nc4cc5c(cc4OC)CCN(CC(=O)N(C)C)CC5)ncc3Cl)ccc2C1 [Example 723] | –
20 | – | – | 5.00 to 6.00 | > 7.00 | CNC(=O)c1ccc(N)cc1Nc1nc(Nc2ccc3c(c2)C(C)(C)CCC(=O)N3)ncc1Cl [Example 1239, 4-Amino-2-[5-chloro-2-(5,5-dimethyl-2-oxo-2,3,4,5-tetrahydro-1H-1-benzazepin-7-ylamino)-pyrimidin-4-ylamino]-N-methyl-benzamide] | –
21 | – | – | < 5.00 | > 7.00 | COc1cc2c(cc1Nc1ncc(Cl)c(Nc3ccccc3S(=O)(=O)N(C)C)n1)CCN(CCCN1CCOCC1)C(=O)C2 [Example 1183, 2-{5-Chloro-2-[8-methoxy-3-(3-morpholin-4-yl-propyl)-2-oxo-2,3,4,5-tetrahydro-1H-benzo[d]azepin-7-ylamino]-pyrimidin-4-ylamino}-N,N-dimethyl-benzenesulfonamide] | –
22 | < 5.00 | 6.00 to 7.00 | – | – | COc1cc2c(cc1Nc1ncc(F)c(NC3C4C=CC(C4)C3C(N)=O)n1)CCN(CC(F)F)CC2 (stereo not drawn) [Example 769, (2-exo,3-exo)-3-{2-[3-(2,2-Difluoro-ethyl)-8-methoxy-2,3,4,5-tetrahydro-1H-benzo[d]azepin-7-ylamino]-5-fluoro-pyrimidin-4-ylamino}-bicyclo[2.2.1]hept-5-ene-2-carboxylic acid amide] | –
23 | – | – | – | – | CCN1CC2OC(C1)c1cc(Nc3ncc(Cl)c(Nc4ccccc4C(=O)NC)n3)ccc12 (stereo not drawn) [Example 61, 2-[5-Chloro-2-(10-ethyl-12-oxa-10-aza-tricyclo[6.3.1.0*2,7*]dodeca-2,4,6-trien-4-ylamino)-pyrimidin-4-ylamino]-N-methyl-benzamide] | pIC50 [1, 9]: 6.00 to 7.00; pIC50 [2, 10]: > 7.00
24 | < 5.00 | > 7.00 | – | – | COc1cc2c(cc1Nc1ncc(Cl)c(Nc3ccc(N4CC5CC4CO5)cc3OC)n1)CCN(CC(=O)N(C)C)CC2 (stereo not drawn) [Example 794, 2-(7-{5-Chloro-4-[2-methoxy-4-(2-oxa-5-aza-bicyclo[2.2.1]hept-5-yl)-phenylamino]-pyrimidin-2-ylamino}-8-methoxy-1,2,4,5-tetrahydro-benzo[d]azepin-3-yl)-N,N-dimethyl-acetamide] | –
